# Measured values published in patent publication US20210378193A1, “HAPLOID EMBRYOGENESIS” (STICHTING WAGENINGEN RESEARCH, priority 2013, published 2021).
# What was measured:
# [1] = tested on: B. rapa genotypes microspore culture; assay: embryogenic cell divisions in Brassica rapa microspore culture; format: cell-based; conditions: 0.5 μM TSA, six B. rapa genotypes
# Protocol: The following B. rapa genotypes were tested in an experiment that measured t h e embryogenic activity of 0.5 μM TSA in microspore culture against respective controls in the absence of TSA: Microspores were obtained from donor buds. Donor buds were ranked from youngest (1) tooldest (3) developmental stage, whereby (2) is an intermediate stage. […] The data also indicates how genotype and/or donor bud stage may influence the level of embryogenic cell divisions caused by enhancement with TSA treatment over controlsin […]. Such stage-dependency is a normal observation in this tissue culture system.
# [2] = tested on: Capsicum annuum microspore cultures; assay: Capsicum annuum microspore culture, embryogenic microspores and embryos per bud; format: cell-based; conditions: TSA during the first 20 hours
# Protocol: Microspore cultures were performed accordingto Kim M, Jang 1-C, Kim J-A, Park E-J, Yoon M, Lee Y (2008) “Embryogenesis and plant regeneration of hot pepper (Capsicum annuum L.) through isolated microspore culture”: Plant Cell Rep 27 (3):425-434. Flower buds containing vacuolate microspores were selected according to Parra-Vega V, Gonzalez-Garcia B, Segui-Simarro J M (2013) “Morphological markers to correlate bud and anther development with microsporogenesis and microgametogenesis in pepper (Capsicum annuum L.)”: Acta Physiol Plant 35 (2):627-633. Except for “Control” and “DMSO,” the microspores were exposed to TSA (diluted in DMSO) during the first 20 hours of culture.
# Cultures were performed according to Kim M, Jang 1-C, Kim J-A, Park E-J, Yoon M, Lee Y (2008) “Embryogenesis and plant regeneration of hot pepper (Capsicum annuum L.) through isolated microspore culture”; Plant Cell Rep 27 (3):425-434. Flower buds containing […] microspores were selected according to Parra-Vega V, Gonzalez-Garcia B, Segui-Simarro JM (2013) “Morphological markers to correlate bud and anther development with microsporogenesis and microgametogenesis in pepper (Capsicum annuum L.)”: Acta Physiol Plant 35 (2):627-633. Except for “Control” and “DMSO,” the microspores were exposed to TSA (diluted in DMSO) during the first 20 hours of culture.
# [3] = tested on: BABY BOOM (BBM); LEAFY COTYLEDON1 (LEC1); LEC2, and FUSCA3; assay: semi-quantitative RT-PCR of embryo-expressed genes in B. napus microspore culture; format: cell-based, Brassica napus; conditions: TSA-treated microspore cultures, regardless of culture temperature
# Protocol: Total RNA isolation and on-column DNase digestion were performed using the InviTrap Spin Plant RNA Mini Kit (Invitek) according to the manufacturer's instructions. For semi-quantitative RT-PCR, 250 ng of total RNA was used for first-strand cDNA synthesis with the Taqman Reverse Transcription Reagents Kit (Applied Biosystems). The cycling parameters were: one cycle at 98° C. for 30 s, 30 cycles comprising 98° C. for 5 s, 60° C. for 30 s, followed by 72° C. for 1 min. The semi-quantitative RT-PCR primers are from Malik et al. (2007) Plant Physiol. 144: 134-154. The quantitative RT-PCR primers for microarray validation were designed based on oligonucleotide probes from Affymetrix GeneChip® Brassica Exon 1.0ST Array (see Malik et al. (2007) supra and Love, C. G., et al. (2010) PloS one 5: e12812). The Arabidopsis hda T-DNA insertion lines were genotyped using the PCR primers. […]
# The cell clusters that are formed in heat-stressed, TSA-treated cultures resemble those found in control cultures that are only exposed to a heat-stress treatment. […] Semi-quantitative RT-PCR and GFP reporter lines were used to determine whether the different types of sporophytic structures that develop in control and TSA-treated cultures are embryogenic. […]
smiles,measurement,setting,value
"CC(/C=C/C(=O)NO)=C\[C@@H](C)C(=O)c1ccc(N(C)C)cc1 [TSA, trichostatin A]",total number of embryogenic cells per bud size compared to the control,[1],greatly increases
same,number of embryogenic cells compared to the control,[2]; 10-day-old cultures,enhances
same,embryo yield (embryos per bud) compared to the control,[2]; 45-day-old cultures,enhances
same,"expression of BBM, LEC1, LEC2 and FUSCA3",[3],enhanced
